In paper PMC3344887 (PLoS ONE, 2012):
“And” between values parts separate entries of the source, which are not always exact repeats. Equal entries are not always repeated. Where two headings read alike, the source gives them in different places.

Assays:
healthy subjects [1] = experiment: 5-Dimensions of Altered States of Consciousness (5D-ASC), clinical study; assay type: in vivo, humans; conditions: p<0.001
Experimental: (§1) The washout periods between the sessions were at least 10 days long.
(§2) Identical placebo (lactose) capsules were prepared. […] Drugs were administered without food.
(§3) The psychometric measures included Visual Analog Scales (VAS), [10], the Adjective Mood Rating Scale (AMRS), and 5-Dimensions of Altered States of Consciousness (5D-ASC), [23]. […] The VASs were presented as 100 mm horizontal lines marked “not at all" on the left and “extremely" on the right. The VASs for “closeness to others," “open," and “talkative" were bidirectional (±50 mm). The VASs were administered 4 h before and 0, 0.33, 1, 1.5, 2, 2.5, 3, 3.5, 4, and 5 h after MDMA or placebo administration. […] The AMRS contains subscales for activity, extroversion and introversion, well-being, emotional excitation, anxiety-depression, and dreaminess. The 5D-ASC rating scale measures alterations in mood, perception, experience of self in relation to the environment, and thought disorder. The 5D-ASC rating scale comprises five subscales or dimensions and 11 lower-order scales. The 5D-ASC dimension “oceanic boundlessness" (OB, 27 items) measures derealization and depersonalization associated with positive emotional states, ranging from heightened mood to euphoric exaltation. […] The global ASC score was determined by adding the OB, AED, and VR scores. The 5D-ASC scale was administered 4 h after MDMA or placebo administration.

healthy subjects [2] = experiment: Circulating plasma catecholamines, clinical study; assay type: in vivo, humans; conditions: peak change from baseline, mean±SEM, 16 subjects
Experimental: as §1, §2
(§4) Plasma concentrations of copeptin were also determined in this study as reported elsewhere. […] No hydrolysis was performed. Thus, the values for HMMA represent the drug concentrations of the non-conjugated metabolite. All blood samples were collected on ice and centrifuged within 10 min at 4°C. The plasma was then stored at –20°C until the analysis.

clinical = conditions: for AUC(0-t): AUC0-6
Experimental: as §2, §4
Cmax and tmax were obtained directly from the observed concentration-time curves. […] Terminal elimination half-life (t 1/2) was calculated using λz and the equation t1/2 = ln2/λz. The area under the plasma concentration-time curve up to 6 h (AUC0-6h) was calculated using the linear trapezoidal rule. The AUC0–∞ was determined by extrapolation of AUC0–6h using λz. The PK parameters were determined using the PK functions for Excel (Microsoft, Redmont, CA, USA). Plasma concentrations were only determined up to 6 h after MDMA administration because the aim of the study was to assess potential changes in MDMA plasma levels while relevant pharmacodynamic effects or MDMA were present.

patients = conditions: 60-120 mg/day; cited from earlier work
[3] = cited from earlier work; for Mean plasma Cmax: healthy volunteers
NE transporter [4] = conditions: cited from earlier work
healthy subjects [5] = experiment: Physiologic measures (blood pressure, heart rate, body temperature), clinical study; assay type: in vivo, humans; conditions: peak change from baseline, mean±SEM, 16 subjects
Experimental: as §1, §2
(§5) Physiologic measures were assessed repeatedly 4, 3, 2, and 1 h before and 0, 0.33, 0.66, 1, 1.5, 2, 2.5, 3, 4, 5, and 6 h after MDMA or placebo administration. Heart rate, systolic blood pressure, and diastolic blood pressure were measured using an OMRON M7 blood pressure monitor (OMRON Healthcare Europe, Hoofddorp, The Netherlands). Measures were taken twice per time point with an interval of 1 min, and the average was used for the analysis. Core (tympanic) temperature was assessed using a GENIUS 2 ear thermometer (Tyco Healthcare Group, Watertown, NY). […] Adverse effects were assessed using the List of Complaints (LC), which consists of 66 items that yield a total adverse effects score and reliably measure physical and general discomfort.
(§6) Clinical data values were transformed to differences from baseline. Peak effects (Emax) were determined for repeated measures. Emax values were compared using General Linear Models repeated-measures analysis of variance, with drug as within-subject factor, using Statistica 6.0 software (StatSoft, Tulsa, OK). Tukey post hoc comparisons were performed based on significant main effects of treatment. Additional analyses of variance were performed, with period as factor to exclude period effects. Correlation analyses were performed using Pearson’s correlations. The criterion for significance was p<0.05. Mean arterial pressure (MAP) was calculated from diastolic blood pressure and systolic blood pressure using the following formula: MAP = DBP+(SBP - DBP)/3.

NE transporter [6] = conditions: read-out: Ki, NE transporter; rat cortex synaptosomes; cited from earlier work
healthy subjects [7] = experiment: Visual Analog Scales, subjective drug effects, clinical study; assay type: in vivo, humans; conditions: peak change from baseline, mean±SEM, 16 subjects
Experimental: as §1, §2, §3, §6

healthy subjects [8] = experiment: Adverse effects, List of Complaints, clinical study
Experimental: as §1, §2, §5

DAT [9] = conditions: cited from earlier work
healthy subjects [10] = experiment: Adjective Mood Rating Scale (AMRS), clinical study; assay type: in vivo, humans; conditions: peak change from baseline, mean±SEM, 16 subjects
Experimental: as §1, §2, §3, §6

SERT = SERT (Homo sapiens, UniProt P31645)
Sequence of SERT (P31645 whole entry): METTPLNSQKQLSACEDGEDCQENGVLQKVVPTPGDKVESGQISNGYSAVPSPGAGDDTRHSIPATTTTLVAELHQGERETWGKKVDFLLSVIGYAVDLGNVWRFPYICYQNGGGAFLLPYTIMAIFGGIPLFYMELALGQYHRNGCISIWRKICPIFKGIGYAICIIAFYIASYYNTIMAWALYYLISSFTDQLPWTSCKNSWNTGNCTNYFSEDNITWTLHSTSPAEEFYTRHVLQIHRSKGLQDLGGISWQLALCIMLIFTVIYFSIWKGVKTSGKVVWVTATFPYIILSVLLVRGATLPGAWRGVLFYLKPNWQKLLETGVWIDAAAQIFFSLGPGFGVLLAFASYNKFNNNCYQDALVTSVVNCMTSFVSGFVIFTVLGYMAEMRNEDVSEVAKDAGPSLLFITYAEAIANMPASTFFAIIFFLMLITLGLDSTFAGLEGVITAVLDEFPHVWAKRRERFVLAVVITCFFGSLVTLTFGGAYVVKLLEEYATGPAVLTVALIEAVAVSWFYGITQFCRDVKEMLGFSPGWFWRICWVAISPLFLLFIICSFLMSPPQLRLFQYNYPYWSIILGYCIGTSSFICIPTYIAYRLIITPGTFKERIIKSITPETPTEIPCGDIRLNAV
Excerpt: The procedures were adapted from previous studies, [3]. […] This transports the cells through the silicon oil layer to the KOH layer, thereby separating the cells from the buffer, which remains on top of the silicon oil layer. The centrifuge tubes were then transferred to liquid nitrogen. The amount of tracer that remained in the cells was quantified by cutting the frozen centrifuge tube above the KOH/oil interface and putting the tip of the tube with the cell pellet in a scintillation vial that contained 500 µl lysis buffer (0.05 M TRIS-HCl, 50 mM NaCl, 5 mM EDTA, and 1% Nonidet P-40 substitute in water). The samples were then shaken for 1 h on a rotary shaker, and 7 ml of scintillation fluid (Ultimagold, Perkin Elmer, Schwerzenbach, Switzerland) was added. Cell-associated radioactivity was then counted. […] Dose-response curves were generated using 9–11 concentrations of MDMA/MDA. […] All data points were derived from at least three independent experiments, each assayed in triplicate. The data were fit by non-linear regression, and EC50 and Emax values were calculated using Prism (GraphPad, San Diego, CA).

NET [11] = target: T1, NET (Homo sapiens, UniProt P23975); experiment: [3H]-NE uptake inhibition, method A (silicon oil); assay type: cell-based; design: expressed in transfected cells; host or cells: HEK 293 cells (Invitrogen), stably transfected
T1 sequence (P23975 whole entry): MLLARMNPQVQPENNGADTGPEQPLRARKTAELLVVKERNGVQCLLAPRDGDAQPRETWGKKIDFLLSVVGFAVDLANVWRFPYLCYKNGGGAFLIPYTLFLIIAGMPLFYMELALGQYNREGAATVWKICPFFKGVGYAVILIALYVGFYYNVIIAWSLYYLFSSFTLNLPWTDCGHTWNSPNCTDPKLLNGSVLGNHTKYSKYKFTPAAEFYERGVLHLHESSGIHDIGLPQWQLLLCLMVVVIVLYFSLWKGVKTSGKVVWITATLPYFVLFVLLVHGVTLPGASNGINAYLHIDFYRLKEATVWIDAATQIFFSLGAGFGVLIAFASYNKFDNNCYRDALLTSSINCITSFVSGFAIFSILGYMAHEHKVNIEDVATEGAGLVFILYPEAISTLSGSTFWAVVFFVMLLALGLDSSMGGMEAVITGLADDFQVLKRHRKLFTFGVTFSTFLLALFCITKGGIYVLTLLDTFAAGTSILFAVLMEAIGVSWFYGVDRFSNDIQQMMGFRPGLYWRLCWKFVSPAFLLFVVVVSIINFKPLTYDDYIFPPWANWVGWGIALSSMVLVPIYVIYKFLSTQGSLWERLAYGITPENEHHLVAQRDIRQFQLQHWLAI

DAT [12] = target: T2, DAT (Homo sapiens, UniProt Q01959); experiment: Radioligand binding, [3H]-WIN35,428, HEK 293 membranes; design: expressed in transfected cells; host or cells: HEK 293 cells (Invitrogen), stably transfected
NET [13] = target: T1, NET; experiment: Radioligand binding, [3H]-nisoxetine, HEK 293 membranes; design: expressed in transfected cells; host or cells: HEK 293 cells (Invitrogen), stably transfected
DAT [14] = target: T2, DAT; experiment: cell-based
NCCc1c[nH]c2ccc(O)cc12 = experiment: cells, lysate or membranes; conditions: other: method A
[15] = substrate: NCCc1ccc(O)c(O)c1; experiment: cells, lysate or membranes; conditions: other: method A
[16] = Duloxetine-MDMA session, mean±SEM, n=16
[17] = Placebo-MDMA session, mean±SEM, n=16
[18] = duloxetine-MDMA vs placebo-MDMA

Molecule: CNCC[C@H](Oc1cccc2ccccc12)c1cccs1 [Duloxetine]
- Effect on MDMA's effects on the total ASC score (healthy subjects [1]): robustly reduced
- Circulating Epinephrine, Emax (healthy subjects [2]): 0.46 ± 0.10 nM
- Circulating Norepinephrine, Emax (healthy subjects [2]): -0.18 ± 0.07 nM
- Cmax (clinical; human, in vivo): 112 ± 7.06 ng/mL
- concentration at 120 min (clinical; human, in vivo): 314 ± 2.5 nM
- Cmax (clinical; human, in vivo, 120 mg): 107 ± 10.2 ng/mL
- AUC(0-t) (clinical; human, in vivo): 800 ± 74.4 ng·h/mL
- AUC(0-inf) (clinical; human, in vivo, AUC(0-∞)): 1960 ± 230 ng·h/mL
- Cmax (clinical; human, in vivo, Plasma concentration Cmax, text of b61): 112 ng/mL and 380 nM
- half-life (clinical; human, in vivo, T1/2): 11 ± 1.04 h
- Tmax (clinical; human, in vivo, Tmax): 5.14 ± 0.29 h
- Incidence of constipation (patients): 11%
- Incidence of decreased appetite (patients): 8%
- Incidence of dizziness (patients): 9-11%
- Incidence of dry mouth (patients): 15-18%
- Incidence of fatigue (patients): 14%
- Incidence of headache (patients): 20%
- Incidence of insomnia (patients): 11-15%
- Incidence of nausea (patients): 20-29%
- Incidence of sweating (patients): 6%
- Mean Cmax at steady state ([3]; 40 mg once daily): 35 ng/mL
- Trough level at 24h at steady state ([3]; 40 mg once daily): approximately 10 ng/mL
- Increase of AUC ([3]; after pretreatment with paroxetine): 1.6 fold
- Elimination half-life [3]: 12 h
- Tmax [3]: 6 h
- Mean Cmax, population PK ([3]; daily 60 mg): 30 to 60 ng/mL
- Mean trough level at 24h, population PK ([3]; daily 60 mg): ~25 ng/mL
- Peak level at steady state ([3]; patients, daily 120 mg): 100 ng/mL
- Trough level at steady state ([3]; patients, daily 120 mg): 50 ng/mL
- Mean plasma Cmax ([3]; single oral dose 30 mg): 22 ng/mL
- Mean plasma Cmax ([3]; single oral dose 60 mg): 44 ng/mL
- Mean plasma Cmax ([3]; single oral dose 90 mg): 61 ng/mL
- Block of thyramine-induced increases in systolic blood pressure (NE transporter [4]; 60 mg for 14 days): not able to block
- Suppression of blood pressure increase due to thyramine (NE transporter [4]; dose of 80-120 mg): effective in suppressing
- DPB, Emax (healthy subjects [5]; diastolic blood pressure): 6.00±0.97 mm Hg
- MAP, Emax (healthy subjects [5]; mean arterial pressure): 5.11±1.01 mm Hg
- Heart rate, Emax (healthy subjects [5]): 5.06±1.27 beats/min
- SBP, Emax (healthy subjects [5]; systolic blood pressure): 6.19±1.42 mm Hg
- Body temperature, Emax (healthy subjects [5]; tympanic): 0.19±0.04 °C
- Ki (NE transporter [6]): 0.0021 µM
- VAS Any drug effect, Emax (healthy subjects [7]): 6.00±2.52
- VAS Closeness, Emax (healthy subjects [7]): 0.00±0.00
- VAS Drug high, Emax (healthy subjects [7]): 4.81±2.93
- VAS Drug liking, Emax (healthy subjects [7]): 7.56±4.43
- VAS Good drug effect, Emax (healthy subjects [7]): 8.75±5.01
- VAS Open, Emax (healthy subjects [7]): 0.38±0.38
- VAS Stimulated, Emax (healthy subjects [7]): 5.13±2.45
- VAS Talkative, Emax (healthy subjects [7]): 0.31±0.31
- List of Complaints (total score), Acute adverse effects (healthy subjects [8]; at 3 h, change from baseline, mean±SEM, 16 subjects): −1.81±1.09
- List of Complaints (total score), Sub-acute adverse effects (healthy subjects [8]; at 24 h, change from baseline, mean±SEM, 16 subjects): −2.88±1.35
- Adverse effects produced (healthy subjects [8]; clinical study): daytime somnolence and moderate insomnia
- Lower potency at DAT compared with SERT and NET (DAT [9]): 10- to 100 fold
- AMRS Activity, Emin (healthy subjects [10]): −2.69±0.69
- AMRS Dreaminess, Emax (healthy subjects [10]): 1.35±0.35
- AMRS Emotional excitation, Emax (healthy subjects [10]): 0.69±0.27
- AMRS Extroversion, Emax (healthy subjects [10]): 0.38±0.16
- AMRS Introversion, Emax (healthy subjects [10]): 1.13±0.30
- AMRS Well-being, Emax (healthy subjects [10]): 0.38±0.16
- Effect on MDMA- and MDA-induced 5-HT release (SERT): completely blocked

Molecule: CNC(C)Cc1ccc(O)c(OC)c1 (stereo not drawn) [HMMA, 4-hydroxy-3-methoxymethamphetamine]
- Cmax (clinical; Duloxetine-MDMA session (duloxetine 120 mg 16 and 4 h before MDMA 125 mg), plasma, mean±SEM, n=16): 2.00 ± 0.38 ng/mL
- AUC0-6 (clinical; [16]): 8.14 ± 1.45 ng·h/mL
- Tmax (clinical; [16]): 1.89 ± 0.25 h
- Cmax (clinical; Placebo-MDMA session (MDMA 125 mg), plasma, mean±SEM, n=16): 3.36 ± 0.34 ng/mL
- AUC0-6 (clinical; [17]): 13.57 ± 1.58 ng·h/mL
- Tmax (clinical; [17]): 1.84 ± 0.17 h
- Decrease in AUC0-6h by duloxetine (clinical; [18]): 48±6%
- Decrease in Cmax by duloxetine (clinical; [18]): 46±6%

Molecule: CC(N)Cc1ccc2c(c1)OCO2 (stereo not drawn) [MDA, 3,4-methylenedioxyamphetamine]
- Cmax (clinical; human, in vivo): 10.7 ± 0.72 ng/mL
- Cmax (clinical; human, in vivo, 125 mg): 11.8 ± 0.7 ng/mL
- AUC(0-t) (clinical; human, in vivo): 46.6 ± 3.02 ng·h/mL
- Tmax (clinical; human, in vivo, Tmax): 5.5 ± 0.22 h
- Ki (NET [11]): 0.341 µM
- Ki (DAT [12]): 26.4 ± 4.24 µM
- Ki (NET [13]): 17.8 ± 4.06 µM
- Ki (DAT [14]): 11 µM

Molecule: CNCCCN1c2ccccc2CCc2ccccc21 [desipramine]
- Block of thyramine-induced SBP responses (NE transporter [4]; no reference given): completely blocked

Molecule: human SERT (Homo sapiens)
- Km (NCCc1c[nH]c2ccc(O)cc12): 0.489 ± 0.147 µM

B1: human DAT (Homo sapiens) (protein)
chain: MSKSKCSVGLMSSVVAPAKEPNAVGPKEVELILVKEQNGVQLTSSTLTNPRQSPVEAQDRETWGKKIDFLLSVIGFAVDLANVWRFPYLCYKNGGGAFLVPYLLFMVIAGMPLFYMELALGQFNREGAAGVWKICPILKGVGFTVILISLYVGFFYNVIIAWALHYLFSSFTTELPWIHCNNSWNSPNCSDAHPGDSSGDSSGLNDTFGTTPAAEYFERGVLHLHQSHGIDDLGPPRWQLTACLVLVIVLLYFSLWKGVKTSGKVVWITATMPYVVLTALLLRGVTLPGAIDGIRAYLSVDFYRLCEASVWIDAATQVCFSLGVGFGVLIAFSSYNKFTNNCYRDAIVTTSINSLTSFSSGFVVFSFLGYMAQKHSVPIGDVAKDGPGLIFIIYPEAIATLPLSSAWAVVFFIMLLTLGIDSAMGGMESVITGLIDEFQLLHRHRELFTLFIVLATFLLSLFCVTNGGIYVFTLLDHFAAGTSILFGVLIEAIGVAWFYGVGQFSDDIQQMTGQRPSLYWRLCWKLVSPCFLLFVVVVSIVTFRPPHYGAYIFPDWANALGWVIATSSMAMVPIYAAYKFCSLPGSFREKLAYAIAPEKDRELVDRGEVRQFTLRHWLKV
- Km [15]: 1.707 ± 0.297 µM
